Paper PMC11569172 (Scientific Reports, 2024)

Legend:
[1] = molecular target: cGAS (Homo sapiens, UniProt Q8N884); test: SPR; assay type: binding
[2] = molecular target: STING (Homo sapiens, UniProt Q86WV6); test: SPR; assay type: binding
STING, sequence (Q86WV6 whole entry): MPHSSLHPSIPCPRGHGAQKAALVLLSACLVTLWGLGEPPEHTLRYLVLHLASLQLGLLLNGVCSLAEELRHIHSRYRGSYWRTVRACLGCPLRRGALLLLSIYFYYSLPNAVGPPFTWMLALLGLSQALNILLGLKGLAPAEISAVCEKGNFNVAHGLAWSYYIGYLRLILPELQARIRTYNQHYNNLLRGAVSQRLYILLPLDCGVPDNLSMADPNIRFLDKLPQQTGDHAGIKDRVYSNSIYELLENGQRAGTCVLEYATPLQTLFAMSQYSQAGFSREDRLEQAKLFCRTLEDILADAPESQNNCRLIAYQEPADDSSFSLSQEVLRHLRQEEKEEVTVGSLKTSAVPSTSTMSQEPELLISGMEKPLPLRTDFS

cGAS, sequence (Q8N884 whole entry): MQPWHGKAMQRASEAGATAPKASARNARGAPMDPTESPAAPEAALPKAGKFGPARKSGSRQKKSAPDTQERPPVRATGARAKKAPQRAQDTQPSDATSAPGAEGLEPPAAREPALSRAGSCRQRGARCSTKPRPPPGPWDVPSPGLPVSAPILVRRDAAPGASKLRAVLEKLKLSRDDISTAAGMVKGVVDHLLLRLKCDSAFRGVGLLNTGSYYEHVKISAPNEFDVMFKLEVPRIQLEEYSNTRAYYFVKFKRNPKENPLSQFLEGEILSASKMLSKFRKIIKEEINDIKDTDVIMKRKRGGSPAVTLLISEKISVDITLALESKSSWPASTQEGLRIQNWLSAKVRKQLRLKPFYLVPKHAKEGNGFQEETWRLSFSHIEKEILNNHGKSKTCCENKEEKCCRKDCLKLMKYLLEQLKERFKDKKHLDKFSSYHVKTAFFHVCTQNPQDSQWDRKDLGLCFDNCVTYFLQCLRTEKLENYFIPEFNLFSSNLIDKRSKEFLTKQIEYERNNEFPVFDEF

SMILES: COc1cc(O)c2c(=O)c(O)c(-c3ccc(O)cc3)oc2c1 [RH, rhamnocitrin]
- Kd [1]: 2.6 µM
- Kd [2]: 6.75 µM
